Reference: patent US4769321A, “Assay method and reagent therefor” (priority 1979, dated 1988)

Tests used:
PK(I) = assay: Detection of ATP by activation of the PFK/PK(I) feedback system (Example B2); format: biochemical, E. coli; settings: 0.0001 to 0.5 mM ATP; 340 nm, 30° C.
Protocol: Cultures of E. coli strain K1-1 were grown on a synthetic medium containing essential nutrients and glycerol as carbon source, until well into their logarithmic phase of growth. The cells were harvested, washed by centrifugation and resuspended in a sonication buffer of 5 mM phosphate, 1 mM EDTA, 2 mM mercaptoethanol pH 7.5 in an amount of approximately 20 mg dry weight per ml. They were then disrupted with an MSE ultrasonic disintegrator for 4 minutes (in 30 seconds bursts while cooled). The resulting crude extract was separated from cell debris by centrifugation. As well as containing pyruvate kinase (I) this extract also contained an interfering isoenzyme with different properties, and also a number of other interfering enzyme activities. It was found, however, that it was possible to remove these contaminants by heating the extract to 55° C. for 20-60, for example 45, minutes. This is the source of pyruvate kinase (I) referred to in the following examples.
In this example the same basic system described in Example 1 was again used, but instead of the system being used to detect an enzyme capable of giving rise to ATP, the pre-existing ATP in a solution was assayed, using a PK(I) extract which had been prepared by heating at 55° C. for 60 minutes.
As in the previous example, the assays were carried out in quartz spectrophotometer cuvettes for use with 1.0 ml assay mixtures. […]

[1] = system: E. coli Type I pyruvate kinase (PK); settings: in the presence of certain amounts of phosphoenolpyruvate; cited from earlier work
creatine kinase = assay: Creatine phosphate detection with creatine kinase as reagent (Example B7); format: biochemical, bovine; settings: for O.D. Units (340 nm) change/minute at 1.5 minutes: CK 0.05 U, 30° C., nil CP gave 0.0011
Protocol: Mixtures were made up in 10 mM dimethyl-glutamate buffer at pH 6.8 and containing 5 mM MgCl2 and 0.1% in bovine serum albumin as follows:
In each case the components were combined from stock solutions in a quartz cuvette of 1 ml capacity, mixed and immediately monitored for NADH oxidation by following their optical density at 340 nm and 30° C.

alkaline phosphatase = assay: Detection of alkaline phosphatase by antibody-coated wells and NAD cycle (Example A1); format: biochemical, bovine (calf); settings: ten-fold dilutions 1:1000 to 1:10^7; pH 9.3; room temperature
Protocol: The alkaline phosphatase used in this example is as obtainable from the Sigma Chemical Co (London) Ltd Type VII from bovine (calf) intestine catalogue number P4502 (1981). Antibody is raised against this material by any of the standard procedures. For example 0.5 mg of the alkaline phosphatase suspension is taken and made to 1.0 ml with distilled water and shaken gently. One ml of Freund's complete adjuvant is then added and the mixture homogenised through a connector between two hypodermic syringes back and forth until a stable water-in-oil emulsion is produced. Approximately 1 ml of the emulsion is then injected intramuscularly into each hindquarter of a rabbit. The injections are repeated two and four weeks later with the same amount of alkaline phosphatase but without the added Freund's adjuvant. Blood is then taken from the immunised animal two weeks after the last injection and the immune-serum taken off after clotting has taken place. An IgG fraction of the serum is then obtained by the standard procedure of DEAE Cellulose Chromatography set out in Methods in Immunology by D. H. Cambell, J. S. Garvey, N. E. Cremer and D. H. Sussdorf, 2nd Edition (1970) pages 193-197, published by W. A. Benjamin, Reading Mass. […] The plates are now ready for use. […]

**Q.** With `Nc1ncnc2c1ncn2[C@@H]1O[C@H](COP(=O)(O)OP(=O)(O)OP(=O)(O)O)[C@@H](O)[C@H]1O` [ATP, adenosine 5'-triphosphate] as the molecule, how does the “initiation and rate of NADH oxidation vs ATP concentration” value (PK(I)) read?
**A.** The higher concentrations of ATP gave rise to an earlier initiation of observable NADH oxidation and subsequently increased in their rate faster than the lower concentrations

**Q.** Which “activation of E. coli Type I pyruvate kinase” value [1] does the source give for `O=C(COP(=O)(O)O)[C@@H](O)[C@H](O)[C@H](O)COP(=O)(O)O` [fructose-1,6-diphosphate] here?
**A.** very potent activator

**Q.** What does the source list for `CN(CC(=O)O)C(=N)NP(=O)(O)O` [CP, creatine phosphate]?
**A.** dependence of the system on creatine phosphate (creatine kinase): dependent on the presence of creatine phosphate and the concentration thereof; O.D. Units (340 nm) change/minute at 1.5 minutes (creatine kinase; CP concentration 0.4 mM): 0.0070 O.D. Units (340 nm) change/min; O.D. Units (340 nm) change/minute at 1.5 minutes (creatine kinase; CP concentration 4.0 mM): 0.0118 O.D. Units (340 nm) change/min

B1: alkaline phosphatase: Sigma Type VII from bovine (calf) intestine catalogue number P4502 (protein, UniProt P19111 20-506, looked up)
Intestinal-type alkaline …: LVPVEEEDPAFWNRQAAQALDVAKKLQPIQTAAKNVILFLGDGMGVPTVTATRILKGQMNGKLGPETPLAMDQFPYVALSKTYNVDRQVPDSAGTATAYLCGVKGNYRTIGVSAAARYNQCKTTRGNEVTSVMNRAKKAGKSVGVVTTTRVQHASPAGAYAHTVNRNWYSDADLPADAQMNGCQDIAAQLVNNMDIDVILGGGRKYMFPVGTPDPEYPDDASVNGVRKRKQNLVQAWQAKHQGAQYVWNRTALLQAADDSSVTHLMGLFEPADMKYNVQQDHTKDPTLQEMTEVALRVVSRNPRGFYLFVEGGRIDHGHHDDKAYMALTEAGMFDNAIAKANELTSELDTLILVTADHSHVFSFGGYTLRGTSIFGLAPSKALDSKSYTSILYGNGPGYALGGGSRPDVNDSTSEDPSYQQQAAVPQASETHGGEDVAVFARGPQAHLVHGVEEETFVAHIMAFAGCVEPYTDCNLPAPTTATSIPD
**Q.** Which “colour change in wells vs alkaline phosphatase concentration” value (alkaline phosphatase) does the source give for B1 here?
**A.** change of colour from pale yellow to black much faster than did those which had been exposed to a lower concentration
